Source: patent US20060293295A1, “Pharmaceutical composition comprising progestogens and/or estrogens and 5-methyl- (6S)-tetrahydrofolate” (priority 2005, published 2006)
Like-named read-outs stand apart in the source and are kept apart here. Blank lines part the entries; values can stand above or below the compound they belong to.

Legend:
[1] = Protocol: The investigated formulation was prepared (process 2) by mixing the ingredients, granulating with the part of the corn starch used as binder, absorbing the 5-methyl-(6S)-tetrahydrofolate after completion of the granulation process, renewed mixing and tableting. By comparison therewith, polyvinylpyrrolidone was added as binder instead of corn starch to the formulation by process 3.
The difference between process 1 and process 2 derives from the time at which the 5-methyl-(6S)-tetrahydrofolate was added during the preparation of the investigated tablet. In process 1, the 5-methyl-(6S)-tetrahydrofolate was present in the mixture even during the granulation, whereas in process 2 it was absorbed only after the granulation.

[2] = 50 rpm, 37° C., 0.03 percent aqueous ascorbic acid solution
Protocol: For this purpose, the tablets were investigated in an in vitro dissolution test using a USP paddle apparatus at 50 rpm and 37° C. in a 0.03 percent aqueous ascorbic acid solution.

[3] = one month
Source text: An oral formulation is normally prepared by granulation, tableting and film-coating.

[4] = Compatibility investigation of binary mixtures with vitamin B12 by DSC; assay type: physicochemical; design: key to Compatibility: ++ good compatibility expected below the stated temperature; + compatibility below the stated temperature; ++/− indifferent compatibility, possibly good compatibility below the stated temperature; +/−− indifferent compatibility, appears to be compatible below the stated temperature; −(−−−) (strong) interaction, incompatible; −(−−−) (strong) interaction, incompatible; details: for Compatibility: binary mixture with vitamin B12, DSC, various gases and temperatures, stated temperature is 60° C. where given; for Comments: binary mixture with vitamin B12, cells wrap, all except Drospirenone and Ethinylestradiol ('very O2-sensitive') continue 'moisture-sensitive'
Protocol: Both vitamin B12 and 5-methyl-(6S)-tetrahydrofolate are unstable in the presence of atmospheric oxygen and humidity. […] Measurements of the incompatibilities between the intended formulation ingredients were carried out by a thermoanalytical method (DSC, differential scanning calorimetry). This allows incompatibilities to be recognized through low enthalpies of fusion and melting temperatures. These are caused for example by a reduced proportion of crystalline substance and the increase in impurities. In the determination, binary mixtures of excipients or active ingredients in each case with vitamin B12 were investigated, and the compatibility was examined under the influence of various gases and temperatures. […]

[5] = intake at the right time around conception; cited from earlier work
[6] = of Metafolin content per tablet immediately after preparation
[7] = per tablet, of specified content 100%, immediately after preparation, average
[8] = vials closed, listed as 5-methyl-(6S)-tetrahydrofolate

Distribution coefficient, absorption (process 2) [1, 6]: 2.5
Distribution coefficient, granulation (process 1) [1, 6]: 6.1
Metafolin content granulation (process 1) ([1]; per tablet, immediately after preparation, average): 88.5%
Metafolin content absorption, PVP (process 3) [1, 7]: 90.5%
Metafolin content absorption, corn starch (process 2) [1, 7]: 96.1%
5-Methyl-(6S)-tetrahydrofolate process 1 dissolution [%] ([2]; 0 min): 0%
5-Methyl-(6S)-tetrahydrofolate process 2 dissolution [%] ([2]; 0 min): 0%
5-Methyl-(6S)-tetrahydrofolate process 1 dissolution [%] ([2]; 10 min): 59.2%
5-Methyl-(6S)-tetrahydrofolate process 2 dissolution [%] ([2]; 10 min): 81.4%
5-Methyl-(6S)-tetrahydrofolate process 1 dissolution [%] ([2]; 15 min): 66.8%
5-Methyl-(6S)-tetrahydrofolate process 2 dissolution [%] ([2]; 15 min): 89.3%
5-Methyl-(6S)-tetrahydrofolate process 1 dissolution [%] ([2]; 30 min): 73.1%
5-Methyl-(6S)-tetrahydrofolate process 2 dissolution [%] ([2]; 30 min): 91.3%
5-Methyl-(6S)-tetrahydrofolate process 1 dissolution [%] ([2]; 45 min): 76.7%
5-Methyl-(6S)-tetrahydrofolate process 2 dissolution [%] ([2]; 45 min): 91.1%
5-Methyl-(6S)-tetrahydrofolate process 1 dissolution [%] ([2]; 60 min): 75.8%
5-Methyl-(6S)-tetrahydrofolate process 2 dissolution [%] ([2]; 60 min): 91.2%
Metafolin content 25° C./60% rH absorption (process 2) ([3]; vials closed): 92.5%
Metafolin content 25° C./60% rH granulation (process 1) ([3]; vials closed): 74.5%
Metafolin content 40° C./75% rH absorption (process 2) ([3]; vials closed): 90.1%
Metafolin content 40° C./75% rH granulation (process 1) ([3]; vials closed): 58.9%
Metafolin content 40° C./75% rH absorption (process 2) [3, 8]: above 90%
Metafolin content 40° C./75% rH granulation (process 1) [3, 8]: ~60%
Metafolin content 25° C./60% rH absorption PVP (process 3) ([3]; vials open): 89.5%
Metafolin content 25° C./60% rH absorption corn starch (process 2) ([3]; vials open): 92.1%
Metafolin content 25° C./60% rH granulation (process 1) ([3]; vials open): 63.2%
Metafolin content 40° C./75% rH absorption PVP (process 3) ([3]; vials open): 37.7%
Metafolin content 40° C./75% rH absorption corn starch (process 2) ([3]; vials open): 67.7%
Metafolin content 40° C./75% rH granulation (process 1) ([3]; vials open): 43.4%
Compound: CN1c2c(nc(N)[nH]c2=O)NC[C@@H]1CNc1ccc(C(=O)N[C@@H](CCC(=O)O)C(=O)O)cc1 [Metafolin]

Compound: Magnesium stearate
Compatibility [4]: ++/−
Comments [4]: O2-sensitive,

Compound: Nc1nc2ncc(CNc3ccc(C(=O)N[C@@H](CCC(=O)O)C(=O)O)cc3)nc2c(=O)[nH]1 [folic acid]
reduction of neural tube defects [5]: 50-70%

Compatibility [4]: +
Comments [4]: O2-sensitive,
Compound: OC[C@H]1O[C@@H](O[C@H]2[C@H](O)[C@@H](O)C(O)O[C@@H]2CO)[C@H](O)[C@@H](O)[C@H]1O (stereo partly drawn) [Lactose]

Compatibility [4]: +
Comments [4]: O2-sensitive
Compound: C[C@]12CCC(=O)C=C1[C@@H]1C[C@@H]1[C@H]1[C@@H]3[C@@H]4C[C@@H]4[C@@]4(CCC(=O)O4)[C@@]3(C)CC[C@@H]12 [Drospirenone]
